# Measured values published in ChEMBL document CHEMBL1201862, “PubChem BioAssay data set” (2004).
#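 Results reflect a 48-hour exposure of cells in 96-well plates to compound at five concentrations. GI50: concentration for 50% inhibition of growth.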 The source made the active and inactive calls. Cut-off read from the data, not from the text of the source: active = GI50 up to about 1.1 µM and inactive = higher.
# Columns and labels:
# Assay in all cases: DTP human tumour cell line panel, 48 h
# DLD-1 = tested on: DLD-1
# DMS-114 = tested on: DMS-114
# DMS-273 = tested on: DMS-273
# HOP-18 = tested on: HOP-18
# KM-20L2 = tested on: KM-20L2
# LXFL 529 = tested on: LXFL 529
# M19-MEL = tested on: M19-MEL
# RXF 631 = tested on: RXF 631
# XF498 = tested on: XF498
SMILES,GI50 (DLD-1),GI50 (DMS-114),GI50 (DMS-273),GI50 (HOP-18),GI50 (KM-20L2),GI50 (LXFL 529),GI50 (M19-MEL),GI50 (RXF 631),GI50 (XF498)
O=[N+]([O-])c1ccc(COc2cccc3cccnc23)cc1,13.9 µM (inactive),2.19 µM (inactive),4.53 µM (inactive),31.5 µM (inactive),33.3 µM (inactive),23.5 µM (inactive),15.1 µM (inactive),13.9 µM (inactive),19.9 µM (inactive)
N=C(Nc1nc(-c2ccccn2)cc2ccccc12)c1ccccn1,0.0019 µM (active),0.00108 µM (active),0.00512 µM (active),0.301 µM (active),–,0.00242 µM (active),0.232 µM (active),0.01 µM (active),0.00407 µM (active)
Nc1ncnc2c1ncn2C1CCC(CO)O1 (stereo not given),> 100 µM (inactive),> 55.6 µM (inactive),> 100 µM (inactive),> 100 µM (inactive),> 100 µM (inactive),–,> 100 µM (inactive),–,> 90.8 µM (inactive)
Nc1nc(=O)[nH]c2c1cnn2C1CCCCO1 (stereo not given),62.7 µM (inactive),–,> 100 µM (inactive),> 100 µM (inactive),> 100 µM (inactive),> 100 µM (inactive),–,> 100 µM (inactive),> 100 µM (inactive)
CCC(C)CN1C(=O)NC(Cc2ccccc2)C1=O (stereo not given),> 100 µM (inactive),> 100 µM (inactive),> 100 µM (inactive),0.119 µM (active),> 100 µM (inactive),> 100 µM (inactive),> 100 µM (inactive),–,> 100 µM (inactive)
O=C(Nc1ccc(Cl)cc1Cl)/C(Cl)=C1/Sc2ccccc2NC1=O,35.4 µM (inactive),20.1 µM (inactive),–,–,61.9 µM (inactive),22.2 µM (inactive),37.8 µM (inactive),–,1.32 µM (inactive)
CC(C)=CC(=O)Cc1nc2ccccc2[nH]c1=O,> 100 µM (inactive),–,> 100 µM (inactive),37 µM (inactive),> 100 µM (inactive),> 100 µM (inactive),> 100 µM (inactive),> 100 µM (inactive),–
C=C=CC(NC(=O)c1ccccc1)(C(=O)O)C(F)(F)F (stereo not given),> 100 µM (inactive),> 100 µM (inactive),> 100 µM (inactive),> 100 µM (inactive),–,> 100 µM (inactive),–,> 100 µM (inactive),> 100 µM (inactive)
COC(=O)[C@H]1N[C@@H](C(=O)OC)C23CCC[C@H]2CC[C@]1(C(OC)OC)C3,> 100 µM (inactive),> 100 µM (inactive),> 100 µM (inactive),> 100 µM (inactive),> 100 µM (inactive),> 100 µM (inactive),> 100 µM (inactive),–,> 100 µM (inactive)
Nc1nc(N)c2nc(-c3ccco3)cnc2n1,> 100 µM (inactive),38.8 µM (inactive),–,27.6 µM (inactive),69.2 µM (inactive),64.1 µM (inactive),> 100 µM (inactive),36 µM (inactive),> 100 µM (inactive)
O=C(O)[C@@H](NS(=O)(=O)c1ccc(F)cc1)c1ccccc1,> 100 µM (inactive),> 100 µM (inactive),> 100 µM (inactive),> 100 µM (inactive),> 100 µM (inactive),> 100 µM (inactive),> 100 µM (inactive),–,> 100 µM (inactive)
C=CCc1cc(OC)c2c(c1)C(OC(C)=O)CC(c1ccc(OC)c(OC)c1)O2 (stereo not given),> 100 µM (inactive),> 100 µM (inactive),> 100 µM (inactive),–,> 100 µM (inactive),> 100 µM (inactive),> 100 µM (inactive),–,–
C=C(N=[N+]=[N-])c1cn(C2CC(O)C(CO)O2)c(=O)[nH]c1=O (stereo not given),> 100 µM (inactive),> 100 µM (inactive),> 100 µM (inactive),> 100 µM (inactive),> 100 µM (inactive),> 100 µM (inactive),> 100 µM (inactive),–,> 100 µM (inactive)
Cc1c(/C=N/N(C)C)oc2c1cc(O)c1ncccc12,3.67 µM (inactive),2.87 µM (inactive),5.31 µM (inactive),1.77 µM (inactive),34.5 µM (inactive),7.98 µM (inactive),–,–,8.38 µM (inactive)
COc1ccc(Cc2c3cc(OC)c(OC)cc3cc[n+]2C)cc1,> 18 µM (inactive),2.82 µM (inactive),2.22 µM (inactive),> 27.9 µM (inactive),10.3 µM (inactive),3.18 µM (inactive),12.6 µM (inactive),> 10.3 µM (inactive),4.99 µM (inactive)
Nc1nc(SCc2ccccc2Cl)c2[nH]cnc2n1,69 µM (inactive),40.8 µM (inactive),41 µM (inactive),–,> 100 µM (inactive),62.1 µM (inactive),> 100 µM (inactive),–,–
CCOC(=O)C(=O)NCCCN1CCOCC1,> 100 µM (inactive),> 100 µM (inactive),> 100 µM (inactive),> 100 µM (inactive),> 100 µM (inactive),> 100 µM (inactive),> 100 µM (inactive),> 100 µM (inactive),> 100 µM (inactive)
COC(=O)c1ccccc1NC(=O)C(=O)CC(=O)CC(c1ccccc1)c1c(O)c2ccccc2oc1=O (stereo not given),> 100 µM (inactive),> 100 µM (inactive),–,–,> 100 µM (inactive),–,> 100 µM (inactive),> 100 µM (inactive),–
Cc1cccc(C(=O)c2cccc3ccccc23)c1C(=O)O,> 100 µM (inactive),3.24 µM (inactive),> 100 µM (inactive),50.9 µM (inactive),> 100 µM (inactive),> 100 µM (inactive),> 100 µM (inactive),> 100 µM (inactive),> 100 µM (inactive)
COc1ccc(/C=C/c2cc(OC)c(OCc3ccccc3)c(OC)c2)cc1,45.6 µM (inactive),68.4 µM (inactive),71.6 µM (inactive),–,> 100 µM (inactive),> 100 µM (inactive),> 100 µM (inactive),48.3 µM (inactive),> 100 µM (inactive)
